# From paper PMC7311950, “Potent Tetrahydroquinolone Eliminates Apicomplexan Parasites” (Frontiers in Cellular and Infection Microbiology, 2020)
# How the values were obtained:
# [1] = tested on: P-glycoprotein (P-gp, MDR1/ABCB1); test: in vitro; details: dog, MDCK-MDR1
# Description: (§1) The effects of changing R1 as 7-Et, 7-Me, 6-CF3, or 6-Me on activity against RH strain tachyzoites, kinetic solubility, and metabolic stability were compared. Kinetic solubility and metabolic stability in human or murine liver microsomes were measured. The hERG (human Ether-à-go-go-Related) liability was also determined. The hERG gene (KCNH2) encodes a protein Kv11.1, the alpha subunit of a potassium ion channel. This channel conducts the rapid component of the delayed rectifier potassium current, IKr, which is critical for repolarization of cardiac action potentials. A reduction in hERG currents from adverse drug effects can lead to long QT interval syndromes. These syndromes are characterized by action potential prolongation, lengthening of the QT interval on surface EKG, and an increased risk for “torsade de pointes” arrhythmias and sudden death. The MDCK-MDR1 Permeability Assay was also performed. MDCK-MDR1 refers to the ability of a compound to permeate across membranes of MDCK-MDR1 (Madin Darby canine kidney [MDCK] cells with the MDR1 gene [ABCB1], the gene encoding for the efflux protein, P-glycoprotein (P-gp)) in vitro. Assessing transport in both directions (apical to basolateral and basolateral to apical) across the cell monolayers enables an efflux ratio to be determined. […] This provides a prediction of blood brain barrier (BBB) penetration potential/permeability and efflux ratio. Effect in CACO-2 (Colon Adenocarcinoma cells) as a permeability assay and on cytochrome P450 (CYP 450) were also determined. CYP enzymes catalyze oxidative biotransformation (phase 1 metabolism) of most drugs. CYP enzymes, bind to membranes in a cell (cyto) and contain a heme pigment (chrome and P) that absorbs light at a wavelength of 450 nm when exposed to carbon monoxide. Metabolism of a drug by CYP enzymes is a major source of variability in drug effect. These were measured by Chem Partners. The relative effect on HFF and parasite enzymes also were compared.
# (§2) In vitro absorption, distribution, metabolism, excretion, and toxicity (ADMET) analyses of the THQ compounds were outsourced to ChemPartner Shanghai Ltd. ELQ-271 (synthesized in-house) was tested as a comparison.
# [2] = tested on: Human Foreskin Fibroblast (HFF); test: Cytotoxicity assay, WST-1 cell proliferation reagent on HFF; type: cell-based; details: Homo sapiens, Fibroblast; supplement summary
# Description: Toxicity assays used WST-1 cell proliferation reagent (Roche) as in Fomovska et al. ([2012a]). HFF were grown on a flat, clear-bottomed, black 96-well plate. Confluent HFF were treated with inhibitory compounds at concentrations of 10 and 50 μM. Compounds were diluted in IMDM-C, and 20 μL were added to each designated well, with triplicates for each condition. A gradient with 2-folddecreasing concentrations of DMSO from 10 to 0% in colorless, translucent IMDM-C was used as a control. The plate was incubated for 72 h at 37°C. Ten microlitre WST-1 reagent (Roche) were added to each well. Cells were incubated for 30–60 min. Absorbance was read using a fluorimeter at 420 nm. A higher degree of color change (and absorbance) indicated mitochondrial activity and cell viability.
# [3] = tested on: P-glycoprotein (P-gp, MDR1); test: in vitro; details: dog, MDCK-MDR1
# Description: as §1, §2
# bovine cytochrome bc1 = biological target: T1, bovine cytochrome bc1 (Bos taurus, UniProt P00157); test: Bovine cytochrome bc1 activity assay; type: biochemical; details: read-out: Bovine Cytbc1 activity inhibition
# T1 construct: Whole fresh bovine heart was collected after slaughter and transported in ice; from tissue; host or cells: bovine heart mitochondria; DDM-solubilised, DEAE-Sepharose and Sephacryl-S300 purified
# Description: Bovine cytochrome bc1 inhibition assay was carried out in 50 mM KPi pH 7.5, 2 mM EDTA, 10 mM KCN, 30 μM equine heart cytochrome c (Sigma Aldrich), and 2.5 nM bovine cytochrome bc1 at room temperature. 20 mM inhibitors dissolved in DMSO were added to the assay at a desired concentration without prior incubation. […] The reaction was initiated by the addition of 50 μM decylubiquinol (Abcam). The reduced cytochrome c was monitored by the different absorption between 550 and 542 nm using extinction coefficient of 18.1 mM^−1 cm^−1 in a SPECTRAmax Plus 384 UV-visible Spectrometer. The initial kinetic rate is determined as a zero-order reaction and used as the specific activity of cytochrome bc1.
smiles,measurement,setting,value
Cc1[nH]c2c(c(=O)c1-c1ccc(Oc3ccc(Cl)cc3)cc1)CCCC2 [JAG50],Papp,[1],> 10 ×10⁻⁶ cm/s
same,efflux ratio,[1],< 1.5
"Cc1[nH]c2c(c(=O)c1-c1ccc(Oc3ccc(OC(F)(F)F)cc3)cc1)CCCC2 [JAG21, 2-Methyl-3-(4-(4-(Trifluoromethoxy)Phenoxy)Phenyl)-5,6,7,8-Tetrahydroquinolin-4-One]",IC50,[2],> 7.5 µM
same,Papp,[3],> 10 ×10⁻⁶ cm/s
same,efflux ratio,[3],< 1.5
same,inhibition at 0.1 µM,bovine cytochrome bc1; 0.1 μM,36%
same,inhibition at 1 µM,bovine cytochrome bc1; 1 μM,63%
